Test results published in the NIST ThermoML archive (doi:10.1021/acs.jced.8b01217).

Settings: Liquid, Ebulliometric method (Recirculating still)

O [water]
Settings	vapor or sublimation pressure [kPa]
310.81 K	6.424
327.62 K	15.58
339.92 K	27.15
349.24 K	41.77
353.35 K	47.72
357.89 K	57.67
362.48 K	68.16
366.81 K	80.61
370.97 K	93.23
375.04 K	107.24
